Source: ChEMBL document CHEMBL1201862, “PubChem BioAssay data set” (2004)
Where “and” joins values, the source holds several entries; their conditions need not be identical. Equal entries are not always repeated.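 96-well plates; 48 h exposure; 5 concentrations. Endpoints by linear interpolation between flanking doses. Not reached: highest tested concentration assigned. GI50: concentration for 50% inhibition of growth.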 Calls of active or inactive are those of the source. No stated cut-off is given here; in the data, active = GI50 up to about 1.1 µM and inactive = higher.

Columns and labels:
Assay in all cases: inhibition of tumour cell growth, NCI panel, 48 h
OVCAR-5 = test system: OVCAR-5
DMS-273 = test system: DMS-273
MDA-MB-435 = test system: MDA-MB-435
NCI-H23 = test system: NCI-H23
SNB-19 = test system: SNB-19
OVCAR-4 = test system: OVCAR-4
SK-OV-3 = test system: SK-OV-3
MCF7 = test system: MCF7
HT-29 = test system: HT-29
HOP-62 = test system: HOP-62
KM12 = test system: KM12
BT-549 = test system: BT-549
HCT-15 = test system: HCT-15
CAKI-1 = test system: CAKI-1
NCI-H522 = test system: NCI-H522
HCT-116 = test system: HCT-116
K562 = test system: K562
T47D = test system: T47D
IGROV-1 = test system: IGROV-1
ACHN = test system: ACHN
TK-10 = test system: TK-10
SNB-75 = test system: SNB-75
Malme-3M = test system: Malme-3M
DU-145 = test system: DU-145
CCRF-CEM = test system: CCRF-CEM
LOX IMVI = test system: LOX IMVI
UO-31 = test system: UO-31
SR = test system: SR
RXF 393 = test system: RXF 393
NCI/ADR-RES = test system: NCI/ADR-RES
SN12C = test system: SN12C
SF-539 = test system: SF-539
M14 = test system: M14
786-0 = test system: 786-0
SF-268 = test system: SF-268
COLO 205 = test system: COLO 205
NCI-H460 = test system: NCI-H460
UACC-257 = test system: UACC-257
OVCAR-3 = test system: OVCAR-3
SK-MEL-5 = test system: SK-MEL-5
RPMI-8226 = test system: RPMI-8226
SK-MEL-28 = test system: SK-MEL-28
Hs-578T = test system: Hs-578T
SK-MEL-2 = test system: SK-MEL-2
MDA-N = test system: MDA-N
SF-295 = test system: SF-295
A498 = test system: A498
A549 = test system: A549
HL-60 = test system: HL-60
OVCAR-8 = test system: OVCAR-8
HCC 2998 = test system: HCC 2998
SW-620 = test system: SW-620
EKVX = test system: EKVX
NCI-H226 = test system: NCI-H226
MDA-MB-231 = test system: MDA-MB-231
PC-3 = test system: PC-3
MOLT-4 = test system: MOLT-4
UACC-62 = test system: UACC-62
U-251 = test system: U-251
HOP-92 = test system: HOP-92
DLD-1 = test system: DLD-1
XF498 = test system: XF498

Measured: GI50

O=c1[nH]c(=O)n([C@H]2C[C@H](O)[C@@H](CO)O2)cc1F [FLOXURIDINE]
inactive: OVCAR-5 103 µM and > 89.9 µM
active: DMS-273 0.319 µM

CC(C)=CC(O)C/C(C)=C/CC/C(C)=C/CCC1(C)C(CCCO)/C(=C(/C)C=O)CCC1(C)O (stereo unspecified)
46.3 µM: HCT-15
inactive: MDA-MB-435 31 µM | NCI-H23 20 µM | SNB-19 97.7 µM | OVCAR-4 25.5 µM | SK-OV-3 47.8 µM | MCF7 37.4 µM | HT-29 26.1 µM | HOP-62 25.9 µM | KM12 22.2 µM | BT-549 40.6 µM | CAKI-1 41.9 µM | NCI-H522 39.7 µM | HCT-116 40 µM | K562 2.99 µM | T47D 61.9 µM | IGROV-1 24.8 µM | ACHN 20.6 µM | TK-10 30.3 µM | SNB-75 > 100 µM | Malme-3M 34 µM | DU-145 57 µM | CCRF-CEM 30.5 µM | LOX IMVI 32.5 µM | UO-31 33.7 µM | SR 37 µM | RXF 393 25.7 µM | NCI/ADR-RES 65.3 µM | SN12C 31.9 µM | SF-539 25.1 µM | M14 26.1 µM | 786-0 35.7 µM | SF-268 40.5 µM | COLO 205 32.7 µM | NCI-H460 25.6 µM | UACC-257 31.5 µM | OVCAR-3 86.1 µM | SK-MEL-5 43.9 µM | RPMI-8226 21.3 µM | SK-MEL-28 29.6 µM | Hs-578T 35.6 µM | SK-MEL-2 59.3 µM | MDA-N 22.1 µM | SF-295 28.8 µM | A498 34.2 µM | A549 28.4 µM | HL-60 23 µM | OVCAR-8 47 µM | HCC 2998 26.4 µM | SW-620 40.6 µM | EKVX 27.5 µM | NCI-H226 74.3 µM | OVCAR-5 > 100 µM | MDA-MB-231 24.7 µM | PC-3 44.8 µM | MOLT-4 24.7 µM | UACC-62 35.9 µM | U-251 34 µM | HOP-92 22.8 µM

CCC/C=C/C=C/C(=O)OC1/C(=C/C(=O)OC)CC2CC(C(C)O)OC(=O)CC(O)CC3CC(OC(C)=O)C(C)(C)C(O)(CC4C/C(=C/C(=O)OC)CC(/C=C/C(C)(C)C1(O)O2)O4)O3 (stereo unspecified)
inactive: MDA-MB-435 8.47 µM | NCI-H23 9.89 µM | SNB-19 > 12.5 µM | BT-549 8.57 µM | NCI-H522 > 12.5 µM | T47D 7.01 µM | ACHN 3.34 µM | TK-10 > 12.5 µM | DU-145 > 12.5 µM | SR > 12.5 µM | SF-539 > 12.5 µM | M14 > 11 µM | 786-0 6.25 µM | SF-268 6.95 µM | RPMI-8226 9.98 µM | SK-MEL-28 9.98 µM | Hs-578T 6.07 µM | MDA-N 7.53 µM | A498 4.18 µM | DLD-1 > 10.9 µM | NCI-H226 > 12.5 µM | OVCAR-5 > 12.5 µM | MDA-MB-231 6.22 µM | PC-3 5.32 µM | DMS-273 10.6 µM | XF498 3.62 µM

CN(CCCNC(=O)c1cc(-c2ccccc2)nc2ccccc12)CCCNC(=O)c1cc(-c2ccccc2)nc2ccccc12
4 µM: HCT-15
inactive: MDA-MB-435 1.76 µM | NCI-H23 6.35 µM | SNB-19 5.97 µM | OVCAR-4 3.54 µM | SK-OV-3 13 µM | MCF7 1.48 µM | HT-29 2 µM | HOP-62 1.82 µM | KM12 2.02 µM | BT-549 12.9 µM | CAKI-1 9.16 µM | NCI-H522 1.77 µM | HCT-116 1.79 µM | K562 1.99 µM | T47D 2.95 µM | IGROV-1 4.41 µM | ACHN 2.81 µM | TK-10 4.45 µM | SNB-75 2.33 µM | Malme-3M 1.94 µM | DU-145 3.58 µM | CCRF-CEM 3.73 µM | LOX IMVI 1.85 µM | UO-31 2.31 µM | SR 3.36 µM | RXF 393 4.62 µM | NCI/ADR-RES 2.84 µM | SN12C 5.85 µM | SF-539 2.2 µM | M14 1.71 µM | 786-0 1.7 µM | SF-268 5.32 µM | COLO 205 1.79 µM | NCI-H460 1.78 µM | UACC-257 1.78 µM | OVCAR-3 3.27 µM | SK-MEL-5 1.66 µM | RPMI-8226 2.8 µM | SK-MEL-28 1.83 µM | Hs-578T 4.17 µM | SK-MEL-2 1.96 µM | MDA-N 1.8 µM | SF-295 1.77 µM | A498 4.41 µM | A549 3.96 µM | HL-60 2.19 µM | OVCAR-8 2.32 µM | HCC 2998 1.93 µM | SW-620 1.85 µM | EKVX 6.1 µM | NCI-H226 3.81 µM | OVCAR-5 2.28 µM | MDA-MB-231 2.44 µM | PC-3 3.56 µM | MOLT-4 2.45 µM | UACC-62 2.07 µM | U-251 2.04 µM | HOP-92 2.64 µM
